# Experimental data: patent US11033538B2, “Dosing regimens for the treatment of lysosomal storage diseases using pharmacological chaperones” (Amicus Therapeutics, Inc., priority 2007, dated 2021)
# How the values were obtained:
# α-GAL [1] = target: T1, α-GAL (Homo sapiens, UniProt P06280, R301Q); experiment: Example 8, α-GAL expression in tissues of transgenic mice expressing R301Q; format: in vivo; details: 100 mg/kg ad libitum, four weeks
# T1 construct: from tissue; host or cells: skin, heart, kidney of transgenic mice
# T1 sequence (P06280 32-429 R301Q): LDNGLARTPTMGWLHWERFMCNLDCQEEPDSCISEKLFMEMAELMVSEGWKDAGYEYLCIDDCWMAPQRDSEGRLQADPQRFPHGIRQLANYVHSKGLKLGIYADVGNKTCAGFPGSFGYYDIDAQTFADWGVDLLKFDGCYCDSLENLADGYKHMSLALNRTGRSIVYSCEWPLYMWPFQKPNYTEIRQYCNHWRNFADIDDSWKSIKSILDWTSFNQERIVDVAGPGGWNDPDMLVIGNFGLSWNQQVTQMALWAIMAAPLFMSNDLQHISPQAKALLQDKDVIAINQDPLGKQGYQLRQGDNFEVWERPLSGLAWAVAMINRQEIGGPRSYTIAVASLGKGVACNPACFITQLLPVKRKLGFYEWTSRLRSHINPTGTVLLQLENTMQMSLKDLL
# GL-3 [2] = experiment: Example 15, podocyte GL-3 by electron microscopy stereology; format: in vivo, human; details: after 6 months of DGJ
# Text: This decrease correlated with % reduction in podocyte GL-3 volume (r=0.79, p=0.02). […] The sensitive quantitative method used can assess treatment efficacy for this important cell type over a relatively short period of time. This method is also more sensitive than the methods described above in the kidney analysis of Example 5 (as shown in FIG. 14), as well as the methods earlier in this example relating to qualitative assessment of podocyte GL-3.
# GL-3 [3] = experiment: Example 11, immunohistochemical staining of GL-3 in hR301Q GLA Tg/KO mice; format: in vivo
# Experimental: Immunohistochemical staining with a monoclonal anti-GL-3 antibody (nuclei counterstained with methyl green) was also performed. […] Data shown are representative pictures from 7-8 mice/group.
# hR301Q GLA [4] = target: T2, hR301Q GLA (Homo sapiens, UniProt P06280, R301Q); experiment: Example 12, GLA activity and protein in tissues of hR301Q GLA Tg/KO mice; format: in vivo; details: 4 weeks
# T2 construct: from tissue; host or cells: skin, heart, kidney lysates of hR301Q GLA Tg/KO mice
# T2 sequence (P06280 32-429 R301Q): T1 sequence (P06280 32-429 R301Q)
# Experimental: Tissue lysates from skin, heart, and kidney were prepared and tested for GLA activity (using 4-MUG as substrate, expressed in nmol/mg protein/hr), GLA protein (using immunoblotting of […] tissue lysate with anti-human GLA antibody) and GL-3 levels (using LC-MS/MS, expressed in mg/g of tissue weight). […] Each bar represents the mean±SEM of n=7-8 mice/group. Each lane in the Western blots represents one mouse from each group.
# GL-3 [5] = experiment: Example 15, kidney interstitial capillary GL-3 inclusions; format: in vivo, human
# Text: The tertiary objectives were cardiac function, patient-reported outcomes, exploratory kidney analyses, and white blood cell α-galactosidase activity. Study completers were eligible to enroll in the open-label study—AT1001-041/NCT01458119—for up to 5 years.
# Each patient underwent a baseline kidney biopsy, as well as repeat kidney biopsies at 6 and 12 months. The number of GL-3 inclusions per kidney interstitial capillary per patient at baseline, and at 6 and 12 months was quantitatively assessed in 300 capillaries by 3 independent pathologists blinded to treatment and visit. All values for each individual biopsy at a given time were averaged prior to statistical analysis.
# Two other Stage 1 endpoints were assessed (modified-ITT population: randomized patients with paired baseline and month 6 biopsies; n=60): percent change in GL-3 inclusions per interstitial capillary, and percent of interstitial capillaries with zero GL-3 inclusions.
# GL-3 [6] = experiment: Example 15, qualitative GL-3 in glomerular cells; format: in vivo, human; details: 12 months of DGJ
# Experimental: GL-3 changes in podocytes, endothelial cells, and mesangial cells, and glomerular sclerosis, were assessed qualitatively by the same 3 pathologists blinded to treatment/visit.
# α-GAL [7] = format: in vivo, human; details: first eleven patients treated at least 12 weeks; two regimens
# Experimental: (§1) Eight patients in the study received an ascending dose of 25, 100, and then 250 mg b.i.d. over 6 weeks, followed by 50 mg/day for the remainder of the study.
# For purposes of calculating the percentage of normal in the table, the level of α-GAL that is normal was derived by using the average of the levels of α-GAL in white blood cells of 15 healthy volunteers from the multiple-dose Phase I study.
# GL-3 [8] = experiment: Oral administration of Amigal to mice that produce defective human α-GAL, GL-3; format: in vivo
# Experimental: (§2) Kidney GL-3 levels were assessed by an independent expert using electron microscopy.
# α-GAL [9] = experiment: Example 8, α-GAL activity in cell lines expressing Fabry missense mutations; format: cell-based
# Text: Cell lines were constructed to express one of 75 Fabry missense mutations. […] 20 of the 75 cell lines expressed a missense mutation corresponding to later-onset Fabry disease.
# [10] = test system: patients with Fabry disease; experiment: Example 15, renal function assessment; format: in vivo, human
# Experimental: Annualized rates of change (mL/min/1.73 m^2/year) were calculated using Chronic Kidney Disease Epidemiology Collaboration-eGFRCKD-EPI) and measured iohexol clearance-mGFRiohexol).
# hR301Q GLA [11] = target: T2, hR301Q GLA; experiment: Example 13, half-life of elevated hR301Q GLA after DGJ withdrawal; format: in vivo, mice; details: after 4 weeks 100 mg/kg/day DGJ, washout; exponential decay curves
# GL-3 [12] = experiment: Example 5, kidney GL-3 levels by electron microscopy; format: in vivo, human
# Experimental: as §1, §2
# [13] = up to 24 months of DGJ, mITT-suitable
compound,measurement,setting,value
"OC[C@H]1NC[C@H](O)[C@@H](O)[C@H]1O [DGJ, (2R,3S,4R,5S)-2-(hydroxymethyl) piperdine-3,4,5-triol]","α-GAL expression in the skin, heart and kidney",α-GAL [1],increased
same,"mean±SD V(Inc/PC), GL-3 inclusion volume per podocyte","GL-3 [2]; baseline 2568±1408, N=8 males, p=0.0182",1282±792 μm^3
same,mean podocyte volume,"GL-3 [2]; baseline 6680±2835, p=0.004",3525±2084 μm^3
same,"GL-3 signal, less frequent vs daily dosing","GL-3 [3]; 300 mg/kg, 4 weeks",greater GL-3 reduction was seen in each tissue
same,GL-3 signal by immunohistochemistry,"GL-3 [3]; both daily and less frequent treatment, skin, heart, kidney",reduced the amount and intensity of GL-3 signal in each tissue
same,"GLA activity in skin, heart, kidney","hR301Q GLA [4]; 3, 10, 30, 100 or 300 mg/kg/day, p<0.05 vs. untreated",significant and dose-dependent increase in GLA activity
same,GLA protein (immunoblotting),hR301Q GLA [4]; 3-300 mg/kg/day,significant and dose-dependent increase
same,reduction in interstitial capillary GL-3 (±SEM),"GL-3 [5]; 6 months of DGJ, mITT-suitable, p=0.008 vs placebo",−0.250±0.103
same,patients achieving a response (>50% reduction in GL-3 inclusions per interstitial capillary),"GL-3 [5]; 6 months, ITT, 150 mg DGJ HCl every other day, 13 of 32, p=0.30 vs placebo",41%
same,median change in interstitial capillary GL-3 from baseline,"GL-3 [5]; 6 months, p=0.097 vs placebo",−40.8%
same,"mean difference for the change in % of interstitial capillaries with zero GL-3 inclusions, in favor of DGJ","GL-3 [5]; 6 months, vs placebo, p=0.042",7.3%
same,interstitial capillary GL-3 reduction after additional treatment,GL-3 [5]; additional 6 months of treatment,remained stable
same,reduction in interstitial capillary GL-3 (±SEM),"GL-3 [5]; at 12 months, patients switching from placebo to DGJ at 6 months, p=0.014",−0.330±0.152
same,treatment effect in interstitial capillary GL-3,GL-3 [5]; patients with mutant α-galactosidase not suitable for DGJ therapy,did not show any treatment effect in interstitial capillary GL-3
same,samples with increases in glomerular cell GL-3,GL-3 [6],None of the samples had increases
same,biopsies with decrease in glomerular podocyte GL-3,GL-3 [6]; 5 of 23 biopsies,22%
same,biopsies with decrease in endothelial cell GL-3,GL-3 [6]; 6 of 23 biopsies,26%
same,biopsies with decrease in mesangial cell GL-3,GL-3 [6]; 11 of 23 biopsies,48%
same,patients with an increase in α-GAL activity,α-GAL [7],10 of the 11
same,GL-3 after oral administration,GL-3 [8],GL-3 reductions observed
same,cell lines in which DGJ enhanced α-GAL activity,α-GAL [9]; 47 of the 75 cell lines,63%
same,cell lines with increase in enzymatic activity,"α-GAL [9]; classic Fabry mutations, 34 of 57 cell lines",60%
same,cell lines with increase in α-GAL activity,"α-GAL [9]; later-onset Fabry mutations, 19 of 20 cell lines",95%
same,"eGFRCKD-EPI or mGFRIohexol changes, DGJ vs placebo","[10]; baseline to month 6, mITT-suitable",no statistically significant differences
same,annualized change in eGFRCKD-EPI (±SEM),[10]; [13],−0.30±6.6 mL/min/1.73 m^2
same,annualized change in mGFRiohexol (±SEM),[10]; [13],−1.51±1.33 mL/min/1.73 m^2
same,half-life of elevated tissue hR301Q GLA levels,hR301Q GLA [11],48 to 60 h
same,decrease of GL-3 levels in other kidney cell types including interstitial capillaries,GL-3 [12]; both patients,less than 1 unit
same,"kidney GL-3 (mesangial cells, glomerular endothelium, distal tubules)","GL-3 [12]; one patient, 12 weeks of treatment",observed decrease in GL-3 in multiple cell types of the kidney of one patient
same,kidney GL-3 (same cell types),"GL-3 [12]; second patient, 24 weeks, not independently conclusive",decrease of GL-3 levels in the same kidney cell types
